This note sets out measurements from patent publication US8481749B2, “N-(tetrazol-5-yl)- and N-(triazol-5-yl)arylcarboxamides and their use as herbicides” (Bayer Cropscience AG, priority 2010, dated 2013).

Some results are limits rather than exact numbers.

This assay concerns Veronica persica. The assay can be described thus: Pre-emergence herbicidal action against harmful plants. In kind it is in vivo. The following applies: 504 h, application rate 80 g/ha, visual assessment after 3 weeks vs untreated controls (100%=plants have died, 0%=like control), read-out: herbicidal activity in percent against Veronica persica.
Regarding `C#CCOc1c(S(C)(=O)=O)ccc(C(=O)Nc2nnnn2CC)c1Cl` [Compound 5-676], the pest or weed control at 80 g/ha was at least 80%.
As to `CCn1nnnc1NC(=O)c1ccc(S(C)(=O)=O)c(SC)c1C(F)(F)F` [Compound 5-597], the pest or weed control at 80 g/ha is at least 80%.
With `CCn1nnnc1NC(=O)c1ccc(S(C)(=O)=O)c(OC)c1Cl` [Compound 5-276], the pest or weed control at 80 g/ha is at least 80%.
To `CCSc1c(Cl)ccc(C(=O)Nc2nnnn2CC)c1C` [Compound 5-122] belongs at least 80%; to `CCCc1c(C(=O)Nc2nnnn2CC)ccc(Cl)c1[S+](C)[O-]` (stereo not drawn) [Compound 5-510], at least 80%.
The figure for `CCn1nnnc1NC(=O)c1ccc(C)c(SC)c1Cl` [Compound 5-614] is at least 80%.
For `CCn1nnnc1NC(=O)c1ccc(S(C)(=O)=O)c(OC)c1C` [Compound 5-166], the pest or weed control at 80 g/ha is at least 80%.
To `CCn1nnnc1NC(=O)c1ccc(S(=O)(=O)CC)c(SC)c1C(F)(F)F` [Compound 5-598] belongs at least 80%.
To `CCn1nnnc1NC(=O)c1ccc(Cl)c(S(=O)(=O)CC)c1C` [Compound 5-124] belongs at least 80%.
To `CCn1nnnc1NC(=O)c1ccc(C#N)c(SC)c1C` [Compound 5-392] belongs at least 80%; to `CCn1nnnc1NC(=O)c1ccc(C(F)(F)F)c(S(C)(=O)=O)c1C1CC1` [Compound 5-210], at least 80%.
On to `CCn1ncnc1NC(=O)c1ccc(C(F)(F)F)c(S(C)(=O)=O)c1C` [Compound 2-148], for which the pest or weed control at 80 g/ha is at least 80%.
